The results in this text go back to ChEMBL document CHEMBL4342437, “Development and structure-activity relationship study of SHP2 inhibitor containing 3,4,6-trihydroxy-5-oxo-5H-benzo[7]annulene” (Bioorg Med Chem Lett, 2020).

For experiment [1], the target named is T1, Tyrosine-protein phosphatase non-receptor type 11 (Homo sapiens) (UniProt Q06124).
T1 sequence (whole entry): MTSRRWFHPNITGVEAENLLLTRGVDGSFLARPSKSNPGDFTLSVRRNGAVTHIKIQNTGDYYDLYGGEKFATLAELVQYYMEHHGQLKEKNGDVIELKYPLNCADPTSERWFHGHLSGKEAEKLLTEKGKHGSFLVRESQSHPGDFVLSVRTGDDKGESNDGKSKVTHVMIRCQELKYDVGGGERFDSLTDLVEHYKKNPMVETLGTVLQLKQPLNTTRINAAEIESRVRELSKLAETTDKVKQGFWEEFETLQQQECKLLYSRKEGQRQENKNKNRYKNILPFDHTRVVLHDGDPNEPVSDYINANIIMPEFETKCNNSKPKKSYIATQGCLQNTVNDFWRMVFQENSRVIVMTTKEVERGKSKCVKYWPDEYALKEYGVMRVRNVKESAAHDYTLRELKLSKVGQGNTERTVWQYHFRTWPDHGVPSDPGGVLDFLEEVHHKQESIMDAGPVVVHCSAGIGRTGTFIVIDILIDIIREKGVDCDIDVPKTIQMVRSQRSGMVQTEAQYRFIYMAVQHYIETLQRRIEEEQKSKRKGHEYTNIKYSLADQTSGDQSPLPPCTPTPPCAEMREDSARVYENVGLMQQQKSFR
Nature of the experiment: Inhibition of recombinant human SHP2 expressed in Escherichia coli using 2P-IRS1 peptide as substrate at 1 uM after 1 hr by microplate reader analysis relative to control.

For experiment [2], the target named is T2, Tyrosine-protein phosphatase non-receptor type 11 (Homo sapiens, UniProt Q06124).
T2 sequence (Q06124 whole entry): T1 sequence (whole entry)
Description: Inhibition of recombinant human SHP2 expressed in Escherichia coli using 2P-IRS1 peptide as substrate after 1 hr by microplate reader analysis.

The test system of experiment [3] is MDA-MB-468. Nature of the experiment: Antiproliferative activity against human MDA-MB-468 cells assessed as reduction in cell viability after 2 to 4 days by CCK-8 assay. It counts as functional, cell-based. A general note: Tetrazolium assays rely on reduction of a dye to a coloured formazan, in cell work by metabolically active cells.
Experiment [4] has as its system MDA-MB-468. Nature of the experiment: Antiproliferative activity against SHP2 knockout human MDA-MB-468 cells with assessed as increase in cell viability at 100 uM after 2 to 4 days by CCK-8 assay relative to MDA-MB-468 cells expressing SHP2. It counts as functional.
Experiment [5] relates to MDA-MB-468. Nature of the experiment: Antiproliferative activity against human MDA-MB-468 3D spheroids assessed as reduction in cell viability after 2 to 4 days by CCK-8 assay. Format: functional, cell-based.
Experiment [6] deals with MDA-MB-468. Nature of the experiment: Antiproliferative activity against human MDA-MB-468 3D spheroids assessed as reduction in cell viability at 20 uM after 2 to 4 days by CCK-8 assay relative to control. Format: functional.
Experiment [7] deals with MDA-MB-468. Description: Potency index, ratio of SHP099 IC50 to compound IC50 for antiproliferative activity against human MDA-MB-468 cells after 2 to 4 days by CCK-8 assay. Format: functional.
Experiment [8] has as its target T1, Tyrosine-protein phosphatase non-receptor type 11 (Homo sapiens). Nature of the experiment: Non-competitive inhibition of recombinant human SHP2 expressed in Escherichia coli using 2P-IRS1 peptide as substrate up to 200 uM after 1 hr by Lineweaver-Burk plot analysis.

pIC50: −log10 of the molar value. The source made the active and inactive calls. The calls are words filed in the database; no cut-off is given here.

In the case of `COc1cc2cc(C(N)=O)cc(O)c(=O)c2c(O)c1O`, in experiment [1], the inhibition (usually the percentage by which the read-out fell short of the control) turned out to be 0%.
Consider `COC(=O)c1cc(O)c(=O)c2c(O)c(O)ccc2c1` [METHYL 7-DESHYDROXYPYROGALLIN-4-CARBOXYLATE], for which the pIC50 (in general, the negative decadic logarithm of the IC50, by convention in mol/L) in experiment [2] is 6.79; in the experiment on MDA-MB-468 [3], 5.34; with MDA-MB-468 [5] it was 4.20. Besides, the inhibition in experiment [1] was 87%. In the experiment on MDA-MB-468 [4], the “fold change (FC)” value is on record as 3. The Activity in the experiment on MDA-MB-468 [6] turned out to be 27.5%.
Turning to `CC(C)OC(=O)c1cc(O)c(=O)c2c(O)c(O)ccc2c1`, in experiment [2], the pIC50 is 5.31. In addition, the inhibition in experiment [1] worked out at 2%.
As for `CC(C)OC(=O)c1cc(O)c(=O)c2c(O)c(O)c(F)cc2c1`, in experiment [2], the pIC50 is 5.11. The inhibition in experiment [1] was 0.47%.
Take `COc1ccc2cc(C(=O)O)cc(OC)c(=O)c2c1OC`: in experiment [1], the inhibition is 0%.
For the compound `O=C(O)c1cc(O)c(=O)c2c(O)c(O)c(F)cc2c1`, the pIC50 in experiment [2] is 6.56; in the experiment with MDA-MB-468 [3], 4.15; in the experiment on MDA-MB-468 [5], 4.41. Moreover, in experiment [1], the inhibition was found to be 90%. For the same compound, the “fold change (FC)” value in the experiment on MDA-MB-468 [4] was 16.3. Moreover, in the experiment on MDA-MB-468 [6], the Activity is listed as 37.2%.
Consider `COC(=O)c1cc(O)c(=O)c2c(O)c(O)c(OC)cc2c1`, for which the pIC50 in experiment [2] was 5.06. Also, the inhibition in experiment [1] amounted to 6%.
Regarding `CCOC(=O)c1cc(O)c(=O)c2c(O)c(O)c(F)cc2c1`, in experiment [2], the pIC50 is 5.18. Moreover, in experiment [1], the inhibition came out at 19%.
As to `NC(=O)c1cc(O)c(=O)c2c(O)c(O)c(F)cc2c1`, in experiment [2], the negative-log IC50 (pIC50) was 6.02. In addition, the inhibition in experiment [1] came out at 52%.
On to `O=c1c(O)cc(-c2nc(CCl)co2)cc2ccc(O)c(O)c12`, for which the negative logarithm of the IC50 (pIC50) in experiment [2] is 5.80. Moreover, the inhibition in experiment [1] was 29%.
For `NC(=O)c1cc(O)c(=O)c2c(O)c(O)ccc2c1`, the pIC50 in experiment [2] is 5.39. Further, the inhibition in experiment [1] was determined as 13%.
With `O=C(O)c1cc(O)c(=O)c2c(O)c(O)ccc2c1` [7-DESHYDROXYPYROGALLIN-4-CARBOXYLIC ACID], the negative-log IC50 (pIC50) is 7.01 in experiment [2], 5.28 with MDA-MB-468 [3] and 4.45 in the experiment with MDA-MB-468 [5]. In addition, the Ratio IC50 in the experiment on MDA-MB-468 [7] was determined as 5.6. For the same compound, in experiment [1], the inhibition is 93%. The “fold change (FC)” value in the experiment on MDA-MB-468 [4] came to 19.3. In the experiment with MDA-MB-468 [6], the Activity is recorded as 35.7%. Further, in experiment [8], the inhibition result is “Active”.
With `O=c1c(O)cccc2ccc(O)c(O)c12`, the inhibition in experiment [1] was 0%.
Consider `COC(=O)c1cc(O)c(=O)c2c(O)c(O)c(F)cc2c1`, for which, in experiment [2], the negative-log IC50 (pIC50) is 5.12. In addition, the inhibition in experiment [1] amounted to 12%.
As for `COC(=O)c1cc(OC)c(=O)c2c(OC)c(OC)ccc2c1`, the inhibition in experiment [1] was determined as 0%.
In the case of `CCOC(=O)c1cc(O)c(=O)c2c(O)c(O)ccc2c1`, in experiment [2], the negative logarithm of the IC50 (pIC50) was 6.01. The inhibition in experiment [1] worked out at 50%.
`CC1(N)CCN(c2cnc(-c3cccc(Cl)c3Cl)c(N)n2)CC1`: the pIC50 in the experiment with MDA-MB-468 [3] was 4.52; in the experiment with MDA-MB-468 [5] it was 4.30.
In the case of `N#Cc1cc(O)c(=O)c2c(O)c(O)ccc2c1`, in experiment [2], the pIC50 was 5.91. The inhibition in experiment [1] came out at 40%.
